According to ChEMBL document CHEMBL5532639, “Heterocyclic pyrimidine derivatives as promising antibacterial agents” (Eur J Med Chem, 2023):
Converted amounts (≈) assume the structure as drawn.

How the values were obtained:
Staphylococcus aureus [1] = test: Antimicrobial activity against Staphylococcus aureus assessed as inhibition of microbial growth incubated for 18 hrs by CLSI protocol based Mueller-Hinton broth assay; format: functional
Salmonella enterica = test: Antimicrobial activity against Salmonella enterica assessed as inhibition of microbial growth incubated for 18 hrs by CLSI protocol based Mueller-Hinton broth assay; format: functional
Morganella morganii [2] = test: Antibacterial activity against Morganella morganii UM869 incubated for 16 to 18 hrs by broth microdilution method; format: functional; conditions: time 16-18 hrs
[3] = test system: Salmonella enterica subsp. enterica serovar Paratyphi B; test: Antibacterial activity against Salmonella paratyphi B CICC 21495 assessed as reduction in […]; format: functional; conditions: time lower 48 hrs
Salmonella typhimurium [4] = test: Antibacterial activity against Salmonella typhimurium DT104 assessed as reduction in bacterial growth inhibition measured after 24 hrs by Mueller Hinton Agar dilution method; format: functional, Salmonella enterica subsp. enterica serovar Typhimurium; conditions: Salmonella enterica
Enterobacter sp. = test: Antibacterial activity against Enterobacter sp. assessed as inhibition of bacterial growth; format: functional
Vibrio cholerae [5] = test: Antibacterial activity against Vibrio cholerae measured after 18 to 20 hrs by broth microdilution method; format: functional; conditions: time 18-20 hrs
Bacillus subtilis [6] = test: Antibacterial activity against Bacillus subtilis assessed as reduction in bacterial growth incubated for 24 hrs by CLSI protocol based Mueller-Hinton broth assay; format: functional
Aeromonas hydrophila = test: Antibacterial activity against Aeromonas hydrophila assessed as inhibition of microbial growth incubated for 24 hrs by CLSI protocol based Mueller-Hinton broth assay; format: functional
Escherichia coli [7] = test: Antimicrobial activity against Escherichia coli assessed as inhibition of microbial growth incubated for 18 hrs by CLSI protocol based Mueller-Hinton broth assay; format: functional
Vibrio cholerae [8] = test: Antibacterial activity against Vibrio cholerae assessed as inhibition of bacterial growth incubated for 24 hrs by broth microdilution method; format: functional
Vibrio parahaemolyticus = test: Antibacterial activity against Vibrio parahaemolyticus assessed as reduction in bacterial growth inhibition measured after 24 hrs by Mueller Hinton Agar dilution method; format: functional
Plesiomonas shigelloides = test: Antibacterial activity against Plesiomonas shigelloides assessed as inhibition of bacterial growth measured after 18 to 20 hrs by broth microdilution method; format: functional; conditions: time 18-20 hrs
Proteus vulgaris [9] = test: Antimicrobial activity against Proteus vulgaris assessed as microbial growth inhibition incubated for 24 hrs by broth microdilution method; format: functional
Shigella boydii = test: Antibacterial activity against Shigella boydii assessed as inhibition of bacterial growth measured after 18 to 20 hrs by broth microdilution method; format: functional; conditions: time 18-20 hrs
Shigella flexneri = test: Antibacterial activity against Shigella flexneri assessed as inhibition of bacterial growth incubated for 24 hrs by broth microdilution method; format: functional
Salmonella paratyphi = test: Antibacterial activity against Salmonella paratyphi A CICC 21501 incubated overnight by standard microtiter dilution method; format: functional, Salmonella enterica subsp. enterica serovar Paratyphi A; conditions: Salmonella enterica
Citrobacter freundii = test: Antibacterial activity against multidrug-resistant Citrobacter freundii assessed as bacterial growth inhibition incubated for 20 to 22 hrs by CLSI based analysis; format: functional; conditions: time 20-22 hrs
Providencia rettgeri = test: Antibacterial activity against Providencia rettgeri assessed as bacterial growth inhibition incubated for 18 hrs by CLSI protocol based Mueller-Hinton broth assay; format: functional
[10] = test system: Staphylococcus epidermidis; test: Antimicrobial activity against Staphylococcus epidermidis assessed as inhibition of microbial growth incubated for 18 hrs by CLSI protocol based Mueller-Hinton broth assay; format: functional
Morganella morganii [11] = test: Antibacterial activity against Morganella morganii UM573 assessed as bacterial growth inhibition incubated for 20 to 22 hrs by CLSI based analysis; format: functional; conditions: time 20-22 hrs
Shigella sonnei = test: Antibacterial activity against Shigella sonnei assessed as inhibition of bacterial growth measured after 18 to 20 hrs by broth microdilution method; format: functional; conditions: time 18-20 hrs
Enterococcus faecalis = test: Antimicrobial activity against Enterococcus faecalis assessed as inhibition of microbial growth incubated for 18 hrs by CLSI protocol based Mueller-Hinton broth assay; format: functional
Edwardsiella tarda = test: Antimicrobial activity against Edwardsiella tarda assessed as inhibition of microbial growth incubated for 18 hrs by CLSI protocol based Mueller-Hinton broth assay; format: functional
Pseudomonas aeruginosa [12] = test: Antimicrobial activity against Pseudomonas aeruginosa assessed as inhibition of microbial growth incubated for 18 hrs by CLSI protocol based Mueller-Hinton broth assay; format: functional
Salmonella typhimurium [13] = test: Antimicrobial activity against Salmonella typhimurium DT104 assessed as inhibition of microbial growth incubated for 18 hrs by CLSI protocol based Mueller-Hinton broth assay; format: functional, Salmonella enterica subsp. enterica serovar Typhimurium; conditions: Salmonella enterica
Klebsiella pneumoniae = test: Antimicrobial activity against Klebsiella pneumoniae assessed as inhibition of microbial growth incubated for 18 hrs by CLSI protocol based Mueller-Hinton broth assay; format: functional
Vibrio cholerae [14] = test: Antibacterial activity against Vibrio cholerae assessed as reduction in bacterial growth measured after 18 to 20 hrs by broth microdilution method; format: functional; conditions: time 18-20 hrs
Salmonella typhimurium [15] = test: Antibacterial activity against Salmonella typhimurium DT104 assessed as reduction in bacterial growth; format: functional, Salmonella enterica subsp. enterica serovar Typhimurium; conditions: Salmonella enterica
Staphylococcus aureus [16] = test: microbe, parasite or virus in culture; conditions: ATCC 25923, 24 h
Description: Antibacterial activity against Staphylococcus aureus ATCC 25923 assessed as reduction in bacterial growth measured after 24 hrs by Mueller-Hinton broth assay

Bacillus subtilis [17] = test: Antibacterial activity against Bacillus subtilis ATCC 465 assessed as reduction in bacterial growth measured after 24 hrs by Mueller-Hinton broth assay; format: functional
Escherichia coli [18] = test: Antibacterial activity against Escherichia coli ATCC 25922 assessed as bacterial growth inhibition; format: functional
Pseudomonas aeruginosa [19] = test: Antibacterial activity against Pseudomonas aeruginosa ATCC 85327 assessed as reduction in bacterial growth measured after 24 hrs by Mueller-Hinton broth assay; format: functional
Escherichia coli [20] = test: microbe, parasite or virus in culture; conditions: ATCC 25922, 24 h
Description: Antibacterial activity against Escherichia coli ATCC 25922 assessed as reduction in bacterial growth measured after 24 hrs by Mueller-Hinton broth assay

Streptococcus pyogenes = test: Antibacterial activity against Streptococcus pyogenes assessed as inhibition of microbial growth by broth micro-dilution method; format: functional
Salmonella typhimurium [21] = test: Antibacterial activity against Salmonella typhimurium DT104 assessed as bacterial growth inhibition by measuring zone of inhibition at 50 ug/ml by agar cup diffusion assay; format: functional, Salmonella enterica subsp. enterica serovar Typhimurium; conditions: Salmonella enterica, read-out: IZ
Bacillus subtilis [22] = test: Antibacterial activity against Bacillus subtilis assessed as bacterial growth inhibition by measuring zone of inhibition at 50 ug/ml by agar cup diffusion assay; format: functional; conditions: read-out: IZ
Staphylococcus aureus [23] = test: Antibacterial activity against Staphylococcus aureus assessed as bacterial growth inhibition by measuring zone of inhibition at 50 ug/ml by agar cup diffusion assay; format: functional; conditions: read-out: IZ
Staphylococcus aureus [24] = test: Antibacterial activity against Staphylococcus aureus ATCC 3750 assessed as reduction in bacterial growth; format: functional
Pseudomonas aeruginosa [25] = test: Antibacterial activity against Pseudomonas aeruginosa assessed as inhibition of microbial growth by broth micro-dilution method; format: functional
Staphylococcus aureus [26] = test: Antibacterial activity against Staphylococcus aureus assessed as inhibition of microbial growth by broth micro-dilution method; format: functional
Escherichia coli [27] = test: Antibacterial activity against Escherichia coli assessed as bacterial growth inhibition by measuring zone of inhibition at 50 ug/ml by agar cup diffusion assay; format: functional; conditions: read-out: IZ
Escherichia coli [28] = test: Antibacterial activity against Escherichia coli assessed as inhibition of microbial growth by broth micro-dilution method; format: functional
Bacillus subtilis [29] = test: Antibacterial activity against Bacillus subtilis 6633 assessed as reduction in bacterial growth; format: functional
Escherichia coli [30] = test: Antibacterial activity against Escherichia coli assessed as zone of inhibition at 50 microg/ml by cup plate analysis; format: functional; conditions: read-out: IZ
Staphylococcus aureus [31] = test: Antibacterial activity against Staphylococcus aureus assessed as bacterial growth inhibition incubated for 24 hrs by CLSI protocol based Mueller-Hinton broth assay; format: functional
Bacillus pumilus = test: Antibacterial activity against Bacillus pumilus assessed as zone of inhibition at 50 microg/ml by cup plate analysis; format: functional; conditions: read-out: IZ
Enterococcus raffinosus = test: Antibacterial activity against Enterococcus raffinosus assessed as bacterial growth inhibition incubated for 24 hrs by CLSI protocol based Mueller-Hinton broth assay; format: functional
Proteus vulgaris [32] = test: Antibacterial activity against Proteus vulgaris assessed as zone of inhibition at 50 microg/ml by cup plate analysis; format: functional; conditions: read-out: IZ
Bacillus subtilis [33] = test: Antibacterial activity against Bacillus subtilis assessed as zone of inhibition at 50 microg/ml by cup plate analysis; format: functional; conditions: read-out: IZ

## Cc1ccc(-c2cc(-c3ccc(Cl)cc3)nc(/N=C3/C(=O)N(CNCN4CCOCC4)c4ccc(Br)cc43)n2)cc1
Staphylococcus aureus [1]
  MIC: 78.1 µg/mL
Salmonella enterica
  MIC: 9.76 µg/mL
Morganella morganii [2]
  MIC: 156 µg/mL (≈ 247 µM)
[3]
  MIC: 39.1 µg/mL (≈ 61.8 µM)
Salmonella typhimurium [4]
  MIC: 156 µg/mL (≈ 247 µM)
Enterobacter sp.
  MIC: 156 µg/mL (≈ 247 µM)
Vibrio cholerae [5]
  MIC: 0.3 µg/mL (≈ 0.475 µM)
Bacillus subtilis [6]
  MIC: 9.76 µg/mL (≈ 15.4 µM)
Aeromonas hydrophila
  MIC: 312 µg/mL
Escherichia coli [7]
  MIC: 2.44 µg/mL
Vibrio cholerae [8]
  MIC: 39.1 µg/mL (≈ 61.8 µM)
Vibrio parahaemolyticus
  MIC: 78.1 µg/mL (≈ 124 µM)
Plesiomonas shigelloides
  MIC: 4.88 µg/mL (≈ 7.72 µM)
Proteus vulgaris [9]
  MIC: 312 µg/mL (≈ 494 µM)
Shigella boydii
  MIC: 9.76 µg/mL (≈ 15.4 µM)
Shigella flexneri
  MIC: 312 µg/mL (≈ 494 µM)
Salmonella paratyphi
  MIC: 39.1 µg/mL (≈ 61.8 µM)
Citrobacter freundii
  MIC: 39.1 µg/mL (≈ 61.8 µM)
Providencia rettgeri
  MIC: 39.1 µg/mL (≈ 61.8 µM)
[10]
  MIC: 625 µg/mL
Morganella morganii [11]
  MIC: 156 µg/mL (≈ 247 µM)
Shigella sonnei
  MIC: 312 µg/mL (≈ 494 µM)
Enterococcus faecalis
  MIC: 1.22 µg/mL
Edwardsiella tarda
  MIC: 39.1 µg/mL
Pseudomonas aeruginosa [12]
  MIC: 312 µg/mL
Salmonella typhimurium [13]
  MIC: 19.5 µg/mL
Klebsiella pneumoniae
  MIC: 312 µg/mL
Vibrio cholerae [14]
  MIC: 9.76 µg/mL (≈ 15.4 µM)

## O=C(N[C@H](CO)[C@H](O)c1ccc([N+](=O)[O-])cc1)C(Cl)Cl [CHLORAMPHENICOL]
Salmonella typhimurium [15]
  MIC: 6 µg/mL (≈ 18.6 µM)
Staphylococcus aureus [16]
  MIC: 8 µg/mL (≈ 24.8 µM)
Bacillus subtilis [17]
  MIC: 4 µg/mL (≈ 12.4 µM)
Escherichia coli [18]
  MIC: 4 µg/mL (≈ 12.4 µM)
Pseudomonas aeruginosa [19]
  MIC: 256 µg/mL (≈ 792 µM)
Escherichia coli [20]
  MIC: 4 µg/mL (≈ 12.4 µM)
Streptococcus pyogenes
  MIC: 50 µg/mL
Salmonella typhimurium [21]
  zone of inhibition at 50 µg/mL: 24 mm
Bacillus subtilis [22]
  zone of inhibition at 50 µg/mL: 20 mm
Staphylococcus aureus [23]
  zone of inhibition at 50 µg/mL: 25 mm
Staphylococcus aureus [24]
  MIC: 5 µg/mL (≈ 15.5 µM)
Pseudomonas aeruginosa [25]
  MIC: 50 µg/mL
Staphylococcus aureus [26]
  MIC: 50 µg/mL
Escherichia coli [27]
  zone of inhibition at 50 µg/mL: 18 mm
Escherichia coli [28]
  MIC: 50 µg/mL
Bacillus subtilis [29]
  MIC: 6 µg/mL (≈ 18.6 µM)

## CC1(C)S[C@@H]2[C@H](NC(=O)Cc3ccccc3)C(=O)N2[C@H]1C(=O)O [PENICILLIN G]
Escherichia coli [30]
  zone of inhibition at 50 µg/mL: 26 mm
Staphylococcus aureus [31]
  MIC: 24.4 µg/mL (≈ 73 µM)
Salmonella typhimurium [15]
  MIC: 5 µg/mL (≈ 15 µM)
Escherichia coli [18]
  MIC: 5 µg/mL (≈ 15 µM)
Bacillus pumilus
  zone of inhibition at 50 µg/mL: 29 mm
Enterococcus raffinosus
  MIC: 93.5 µg/mL (≈ 280 µM)
Staphylococcus aureus [24]
  MIC: 6 µg/mL (≈ 17.9 µM)
Proteus vulgaris [32]
  zone of inhibition at 50 µg/mL: 28 mm
Bacillus subtilis [33]
  zone of inhibition at 50 µg/mL: 25 mm
Bacillus subtilis [29]
  MIC: 22 µg/mL (≈ 65.8 µM)

## CN(C)c1ccc(-c2cc(-c3ccsc3)nc(N)n2)cc1
Escherichia coli [30]
  zone of inhibition at 50 µg/mL: 11 mm
Bacillus pumilus
  zone of inhibition at 50 µg/mL: 12 mm
Proteus vulgaris [32]
  zone of inhibition at 50 µg/mL: 12 mm
Bacillus subtilis [33]
  zone of inhibition at 50 µg/mL: 15 mm
